Measured values: paper PMC6731281, “Production of zosteric acid and other sulfated phenolic biochemicals in microbial cell factories” (Nature Communications, 2019)

Assays:
Type in all cases: cell-based
SULT1A1Rno = target: T1, SULT1A1Rno (Rattus norvegicus, UniProt P17988); assay: HPLC of supernatant of E. coli expressing the enzyme; product zosteric acid matched synthetic standard; conditions: intracellular PAPS as donor; 100 µM substrate in screen; M9, 37 °C, 24 h
T1 construct: gene Sult1a1; codon-optimized synthetic gene in pETDuet-1, expressed in E. coli KRX or BL21(DE3) (also in S. cerevisiae); whole growing cells
T1 sequence (P17988 whole entry): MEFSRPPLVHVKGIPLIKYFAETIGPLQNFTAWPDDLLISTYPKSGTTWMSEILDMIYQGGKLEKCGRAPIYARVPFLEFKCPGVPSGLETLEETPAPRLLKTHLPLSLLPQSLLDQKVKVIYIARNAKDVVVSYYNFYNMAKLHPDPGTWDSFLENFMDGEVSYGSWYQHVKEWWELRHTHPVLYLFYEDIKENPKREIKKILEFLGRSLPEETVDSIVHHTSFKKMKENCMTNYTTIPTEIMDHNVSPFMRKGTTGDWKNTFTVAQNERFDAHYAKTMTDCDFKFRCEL

TALRsp = target: T2, TALRsp (Cereibacter sphaeroides, UniProt Q3IWB0); assay: HPLC of p-coumaric and zosteric acid in culture of E. coli co-expressing TAL and SULT1A1; conditions: with or without 2 mM tyrosine; M9, 0.2% glucose, 24 h
T2 construct: gene hutH; co-expressed with rat SULT1A1 in E. coli BL21(DE3); whole growing cells
T2 sequence (Q3IWB0 1-523): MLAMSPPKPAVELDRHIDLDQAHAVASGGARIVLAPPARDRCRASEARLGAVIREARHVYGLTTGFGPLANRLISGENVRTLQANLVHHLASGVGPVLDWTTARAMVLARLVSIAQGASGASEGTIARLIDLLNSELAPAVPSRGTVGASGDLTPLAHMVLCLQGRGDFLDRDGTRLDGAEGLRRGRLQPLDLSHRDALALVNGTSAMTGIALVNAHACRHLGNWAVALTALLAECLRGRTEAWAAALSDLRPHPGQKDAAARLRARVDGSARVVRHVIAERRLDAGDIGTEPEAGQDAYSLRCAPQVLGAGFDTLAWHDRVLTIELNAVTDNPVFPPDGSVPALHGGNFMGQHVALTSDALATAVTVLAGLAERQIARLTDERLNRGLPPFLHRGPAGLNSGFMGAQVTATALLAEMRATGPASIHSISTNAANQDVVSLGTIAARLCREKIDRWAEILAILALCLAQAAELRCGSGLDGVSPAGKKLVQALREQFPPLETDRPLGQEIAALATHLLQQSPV

TALFjo = target: T3, TALFjo (Flavobacterium johnsoniae, UniProt A5FKY3); assay: as above; conditions: with or without 2 mM tyrosine; M9, 0.2% glucose, 24 h
T3 construct: gene Fjoh_1109; co-expressed with rat SULT1A1 in E. coli BL21(DE3) (also in S. cerevisiae); whole growing cells
T3 sequence (A5FKY3 1-506): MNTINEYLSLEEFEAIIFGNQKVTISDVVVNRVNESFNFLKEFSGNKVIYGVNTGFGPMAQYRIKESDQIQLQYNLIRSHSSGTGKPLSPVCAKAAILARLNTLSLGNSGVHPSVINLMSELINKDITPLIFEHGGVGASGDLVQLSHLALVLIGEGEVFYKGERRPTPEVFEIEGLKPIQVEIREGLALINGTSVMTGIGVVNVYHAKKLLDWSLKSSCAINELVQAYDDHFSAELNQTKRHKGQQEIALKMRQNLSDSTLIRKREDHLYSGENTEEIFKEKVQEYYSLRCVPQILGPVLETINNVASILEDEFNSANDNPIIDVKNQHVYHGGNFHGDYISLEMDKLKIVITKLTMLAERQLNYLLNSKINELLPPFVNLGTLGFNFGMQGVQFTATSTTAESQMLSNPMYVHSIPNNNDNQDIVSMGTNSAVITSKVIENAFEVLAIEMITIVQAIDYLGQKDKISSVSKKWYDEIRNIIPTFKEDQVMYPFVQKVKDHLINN

TALRca = target: T4, TALRca (Rhodobacter capsulatus, UniProt D5AR26); assay: as above; conditions: with or without 2 mM tyrosine; M9, 0.2% glucose, 24 h
T4 construct: gene hutH; co-expressed with rat SULT1A1 in E. coli BL21(DE3); whole growing cells
T4 sequence (D5AR26 1-531): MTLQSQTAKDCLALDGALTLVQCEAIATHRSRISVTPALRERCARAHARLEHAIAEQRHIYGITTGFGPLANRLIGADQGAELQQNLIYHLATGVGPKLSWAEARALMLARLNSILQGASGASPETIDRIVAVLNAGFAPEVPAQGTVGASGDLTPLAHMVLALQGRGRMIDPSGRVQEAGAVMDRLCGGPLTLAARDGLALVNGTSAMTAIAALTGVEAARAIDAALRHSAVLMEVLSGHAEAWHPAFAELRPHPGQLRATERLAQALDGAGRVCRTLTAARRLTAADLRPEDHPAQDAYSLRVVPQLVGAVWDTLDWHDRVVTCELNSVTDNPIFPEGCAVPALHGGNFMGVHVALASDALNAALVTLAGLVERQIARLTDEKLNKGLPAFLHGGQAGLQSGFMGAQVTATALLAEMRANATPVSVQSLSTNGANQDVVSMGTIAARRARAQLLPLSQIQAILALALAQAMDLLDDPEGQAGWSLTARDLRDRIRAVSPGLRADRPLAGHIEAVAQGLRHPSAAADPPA

Row | Structure (SMILES) | HPLC of supernatant of E. coli expressing the enzyme; product zosteric acid matc (SULT1A1Rno) | HPLC of p-coumaric and zosteric acid in culture of E. coli co-expressing TAL and (TALRsp) | HPLC of p-coumaric and zosteric acid in culture of E. coli co-expressing TAL and (TALFjo) | HPLC of p-coumaric and zosteric acid in culture of E. coli co-expressing TAL and (TALRca)
1 | O=C(O)/C=C/c1ccc(O)cc1 [p-coumaric acid] | SULT1A1Rno showed the greatest production of zosteric acid from p-coumaric acid | – | – | –
2 | N[C@@H](Cc1ccc(O)cc1)C(=O)O [tyrosine] | – | expression of a TAL-encoding gene was required for the production of pHCA | expression of a TAL-encoding gene was required for the production of pHCA | expression of a TAL-encoding gene was required for the production of pHCA
